Literature values in article PMC4546427, “Stereoselective Regulation of P-gp Activity by Clausenamide Enantiomers in Caco-2, KB/KBv and Brain Microvessel Endothelial Cells” (PLoS ONE, 2015).
Read-outs that look alike come from different tables or passages of the source.

System: P-gp ATPase
Design: method as in PMID 9300798
Settings: cited from earlier work

In the case of CC(=O)[C@H]1CC[C@H]2[C@@H]3CCC4=CC(=O)CC[C@]4(C)[C@H]3CC[C@]12C [progesterone], the “Effect on P-gp ATPase activity” value (concentrations above 25 μmol/L) is given as “inhibited” and the “Effect on P-gp ATPase activity” value (low concentration 6.3 μmol/L) is given as “stimulated”.
